Source: PubChem BioAssay AID1963427 (Molecular Pharmacology Branch, DTP, NCI, 2024)

Tested on: 317291-083-R-J1-PDC complex spheroid growth
Assay: Anticancer human tumor 317291-083-R-J1-PDC patient-derived soft tissue sarcoma cell line growth inhibition [Asc]
Conditions: for IC50: curve of first compound; for viability, T/C: stronger effect = lower value; active = viability on the fitted dose curve at most 10% of control; inactive = the rest
Description: Multicellular complex tumor spheroid response to apoptosis pathway targeting inhibitors Alrizomadlin, Pelcitoclax, and Dasminapant in combination with a variety of drugs and investigational agents in selected tumor cell lines
The MDM2 inhibitor alrizomadlin, the Bcl-2/Bcl-xL inhibitor pelcitoclax, and the IAPs inhibitor dasminapant were evaluated both individually and in combination with standard of care and investigational anticancer small molecules within a complex spheroid model of solid tumors. . Complex spheroids include a stromal component modeled by human endothelial cells (HUVEC) and fibroblasts modeled by human mesenchymal stem cells (MSCs). The concentration ranges selected for each drug and investigational agent were based upon clinically achievable concentrations if the clinical Cmax of the agent was known.
Compounds. The drugs and investigational agents: alrizomadlin (APG-115; NSC831270), pelcitoclax (APG-1252; NSC835773), dasminapant (APG-1387;NSC834197), TAK-243 (NSC785004), copanlisib (NSC809693), olaparib (NSC753686), talazoparib (NSC767125), cobimetinib (NSC 768068), eltanexor (KPT-8602, NSC 794443), abemaciclib (NSC 768073), sotorasib (NSC818433), adagrasib (NSC 831453), MRTX-1133 (NSC 836407), Iadademestat (ORY1001, NSC 806812), and RMC-4630 (NSC839698), were obtained from the NCI Developmental Therapeutics Program Chemical Repository. The FDA-approved anticancer drug set is available from the Developmental Therapeutics Program at https://dtp.cancer.gov/organization/dscb/obtaining/available plates.htm. […] The stock solutions were prepared in dimethyl sulfoxide (DMSO, Sigma-Aldrich, St. Louis, MO, cat. D2650) at 800-fold the tested concentration and stored at -70 degrees C prior to their use. All drugs and investigational agents were tested over a range starting from a high concentration at or near the clinical Cmax and decreasing in half-log increments. If the clinical Cmax for an agent had not been determined, the highest concentration tested was 10 microM.
The patient-derived cancer (PDC) cell lines include five colon adenocarcinomas: 186277-243-T-J2-PDC, 616215-338-R-J1-PDC, 439559-082-T-J2-PDC, 463943-066-T-J2-PDC, and 519858-162-T-J1-PDC; three pancreatic carcinomas: 323965-272-R-J2-PDC, 521955-158-R6-J3-PDC, and 521955-158-R2-J5-PDC; two uterine sarcomas: 327498-152-R-J2-PDC and 993429-296-R-J1-PDC; two rhabdomyosarcomas: 755483-174-R-J1-PDC and 772245-204-R-J1-PDC; two soft tissue sarcomas: 126254-015-R-J1-PDC and 494315-158-R-J1-PDC; two malignant fibrous histiocytomas: 317291-083-R-J1-PDC and 596521-263-R-J1-PDC; two breast carcinomas: 171881-019-R-J1-PDC and 885512-296-R-J2-PDC; and one ovarian carcinoma: 6556581-035-R-J-PDC were obtained from the NCI PDMR, (https://pdmr.cancer.gov). The established cell lines HSSY-2 synovial sarcoma (RRID:CVCL 8719), SYO-1 synovial sarcoma (RRID:CVCL_7146), MPNST malignant peripheral neural sheath tumor were obtained from the Sloan Kettering Institute. The following established cell lines were purchased from the American Type Culture Collection (ATCC, Manassas, VA), Sor the received from the NCI repository:, PANC-1 pancreatic carcinoma (CRL-1469, RRID:CVCL_0480), OVCAR-5 ovarian carcinoma (RRID:CVCL_1628), OVCAR-8 ovarian carcinoma (RRID:CVCL_1629), , MCF-7 breast carcinoma (CRL-12584, RRID:CVCL_0031), MDA-MB-231 breast carcinoma (CRL-12532, RRID:CVCL_0062), NCI-H1876 small cell lung carcinoma (CRL-5902, RRID:CVCL_1503), NCI-H510A small cell lung carcinoma (HTB-184, RRID:CVCL_1565), NCI-H1417 (CRL-5869, RRID:CVCL_1469), and NCI-H196 small cell lung carcinoma (CRL-5823, RRID:CVCL_1509). Dr. Peter Houghton (Greehey Children's Cancer Research Institute, University of Texas Health Science Center, San Antonio, TX) provided Rh-18 rhabdomyosarcoma (RRID:CVCL_1659). Pooled donor human umbilical vein endothelial cells (HUVEC, Lonza, cat. CC-2519) and human mesenchymal stem cells (hMSC, Lonza, cat. PT-2501) were purchased from Lonza (Walkersville, MD).
Cell Culture. […]
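Note: compound exposure lasted seven days after spheroids formed for three days.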
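Throughout, for viability, T/C: 100% = DMSO vehicle control wells.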

NC(=O)C(=Cn1cnc(-c2cc(C(F)(F)F)cc(C(F)(F)F)c2)n1)c1cncnc1 + CCN1C(C(=O)NC23CCC(C(=O)O)(CC2)CC3)C(c2cccc(Cl)c2F)C2(C(=O)Nc3cc(Cl)ccc32)C12CCCCC2
23.6 nM: IC50 (second compound 0.949 µM)
23.8 nM: IC50 (second compound 0.0949 µM)
inactive: viability, T/C (second compound 0.00949 µM, first compound 0.000949 µM) 97.9% | viability, T/C (second compound 0.00949 µM, first compound 0.003 µM) 83.4% | viability, T/C (second compound 0.00949 µM, first compound 0.00949 µM) 79.2% | viability, T/C (second compound 0.00949 µM, first compound 0.03 µM) 57.7% | viability, T/C (second compound 0.00949 µM, first compound 0.0949 µM) 10% | viability, T/C (second compound 0.03 µM, first compound 0.000949 µM) 118% | viability, T/C (second compound 0.03 µM, first compound 0.003 µM) 87.6% | viability, T/C (second compound 0.03 µM, first compound 0.00949 µM) 84.8% | viability, T/C (second compound 0.03 µM, first compound 0.03 µM) 38.2% | viability, T/C (second compound 0.03 µM, first compound 0.0949 µM) 5.81% | viability, T/C (second compound 0.0949 µM, first compound 0.000949 µM) 94.6% | viability, T/C (second compound 0.0949 µM, first compound 0.003 µM) 109% | viability, T/C (second compound 0.0949 µM, first compound 0.00949 µM) 72.4% | viability, T/C (second compound 0.0949 µM, first compound 0.03 µM) 46.4% | viability, T/C (second compound 0.0949 µM, first compound 0.0949 µM) 10.3% | viability, T/C (second compound 0.3 µM, first compound 0.000949 µM) 95.1% | viability, T/C (second compound 0.3 µM, first compound 0.003 µM) 106% | viability, T/C (second compound 0.3 µM, first compound 0.00949 µM) 74.6% | viability, T/C (second compound 0.3 µM, first compound 0.03 µM) 47.4% | viability, T/C (second compound 0.3 µM, first compound 0.0949 µM) 7.13% | viability, T/C (second compound 0.949 µM, first compound 0.000949 µM) 110% | viability, T/C (second compound 0.949 µM, first compound 0.003 µM) 90.3% | viability, T/C (second compound 0.949 µM, first compound 0.00949 µM) 69.6% | viability, T/C (second compound 0.949 µM, first compound 0.03 µM) 55.6% | viability, T/C (second compound 0.949 µM, first compound 0.0949 µM) 4.34% | viability, T/C (second compound 3 µM, first compound 0.000949 µM) 100% | viability, T/C (second compound 3 µM, first compound 0.003 µM) 87.2% | viability, T/C (second compound 3 µM, first compound 0.00949 µM) 76.8% | viability, T/C (second compound 3 µM, first compound 0.03 µM) 27.7% | viability, T/C (second compound 3 µM, first compound 0.0949 µM) 21.7%
24.3 nM: IC50 (second compound 0.3 µM)
21.5 nM: IC50 (second compound 0.03 µM)
18.2 nM: IC50 (second compound 3 µM)
34.2 nM: IC50 (second compound 0.00949 µM)
active: viability, T/C (second compound 0.00949 µM, first compound 0.3 µM) 2.56% | viability, T/C (second compound 0.03 µM, first compound 0.3 µM) 2.23% | viability, T/C (second compound 0.0949 µM, first compound 0.3 µM) 2.94% | viability, T/C (second compound 0.3 µM, first compound 0.3 µM) 2.81% | viability, T/C (second compound 0.949 µM, first compound 0.3 µM) 2.96% | viability, T/C (second compound 3 µM, first compound 0.3 µM) 2.15%
